In paper PMC10634319 (Biochemistry, 2023):
pIC50: −log10 of the molar value.

Key:
human ABCB10 [1] = biological target: T1, human ABCB10 (Homo sapiens, UniProt Q9NRK6); test: ATPase activity, malachite green phosphate assay; assay type: biochemical
T1 sequence (Q9NRK6 152-738): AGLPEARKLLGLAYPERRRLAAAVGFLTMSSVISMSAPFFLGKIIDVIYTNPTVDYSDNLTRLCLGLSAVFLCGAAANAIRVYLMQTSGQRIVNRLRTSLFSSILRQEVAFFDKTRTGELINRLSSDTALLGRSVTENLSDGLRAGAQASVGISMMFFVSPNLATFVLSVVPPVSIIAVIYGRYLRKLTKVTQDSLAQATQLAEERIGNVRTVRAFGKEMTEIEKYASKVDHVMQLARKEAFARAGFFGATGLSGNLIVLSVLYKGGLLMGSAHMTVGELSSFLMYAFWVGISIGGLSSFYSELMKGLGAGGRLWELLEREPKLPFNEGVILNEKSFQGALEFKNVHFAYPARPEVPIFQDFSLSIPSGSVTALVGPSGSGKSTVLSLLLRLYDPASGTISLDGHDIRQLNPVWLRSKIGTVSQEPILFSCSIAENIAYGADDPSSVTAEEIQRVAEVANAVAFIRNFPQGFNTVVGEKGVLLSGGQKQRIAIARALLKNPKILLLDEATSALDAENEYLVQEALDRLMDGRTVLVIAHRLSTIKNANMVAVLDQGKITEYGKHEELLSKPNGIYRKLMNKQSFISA

human ABCB10 [2] = biological target: T1, human ABCB10; settings: 0.3 μM protein, 0-2000 μM ATP, 5 mM MgCl2, 37 °C, no added lipid

Row | pIC50 (human ABCB10 [1]) | Structure (SMILES) | KM (human ABCB10 [2])
1 | ~5.00 | CCCCCCCC/C=C\CCCCCCCC(=O)OC[C@H](COP(=O)(O)OCC(O)COP(=O)(O)OC[C@@H](COC(=O)CCCCCCC/C=C\CCCCCCCC)OC(=O)CCCCCCC/C=C\CCCCCCCC)OC(=O)CCCCCCC/C=C\CCCCCCCC (some centres unmarked) [TOCDL, 1,1′,2,2′-tetraoleoyl-cardiolipin] | 
2 |  | Nc1ncnc2c1ncn2[C@@H]1O[C@H](COP(=O)(O)OP(=O)(O)OP(=O)(O)O)[C@@H](O)[C@H]1O [ATP] | Michaelis–Menten equation was fitted to the initial rates to determine the Michaelis constant (KM)
